From ChEMBL document CHEMBL1649124, “Genetic variability among ampC genes from acinetobacter genomic species 3” (Antimicrob Agents Chemother, 2009)

Experiments:
[1] = test system: Acinetobacter pittii; experiment: Ratio of MIC for Acinetobacter genomosp. 3 isolate 103 to MIC for Acinetobacter genomosp. 3 isolate 103 in presence of efflux pump inhibitor PAN; type: functional
[2] = test system: Acinetobacter pittii; experiment: Ratio of MIC for Acinetobacter genomosp. 3 isolate 103 to MIC for Acinetobacter genomosp. 3 isolate 103 in presence of efflux pump inhibitor CCCP; type: functional

C[C@@H](O)[C@H]1C(=O)N2C(C(=O)O)=C(S[C@@H]3CN[C@H](C(=O)N(C)C)C3)[C@H](C)[C@H]12 [MEROPENEM]
Ratio [1]: 4
Ratio [2]: 3
